Results: patent publication US20250282776A1, “Bicyclic TLR7 Agonists and Uses Thereof” (Bristol-Myers Squibb Company, priority 2024, published 2025)
pEC50: −log10 of the molar value.

Assays:
human TLR8 (hTLR8) = target: T1, human TLR8 (hTLR8) (Homo sapiens, UniProt Q9NR97); experiment: Human TLR8 agonist activity assay (measured in a similar manner); assay type: cell-based; settings: HEK-Blue TLR cells, SEAP reporter, measured in a similar manner to TLR7; some values average of multiple measurements
T1 construct: expressed in transfected cells
T1 sequence (Q9NR97 27-1041): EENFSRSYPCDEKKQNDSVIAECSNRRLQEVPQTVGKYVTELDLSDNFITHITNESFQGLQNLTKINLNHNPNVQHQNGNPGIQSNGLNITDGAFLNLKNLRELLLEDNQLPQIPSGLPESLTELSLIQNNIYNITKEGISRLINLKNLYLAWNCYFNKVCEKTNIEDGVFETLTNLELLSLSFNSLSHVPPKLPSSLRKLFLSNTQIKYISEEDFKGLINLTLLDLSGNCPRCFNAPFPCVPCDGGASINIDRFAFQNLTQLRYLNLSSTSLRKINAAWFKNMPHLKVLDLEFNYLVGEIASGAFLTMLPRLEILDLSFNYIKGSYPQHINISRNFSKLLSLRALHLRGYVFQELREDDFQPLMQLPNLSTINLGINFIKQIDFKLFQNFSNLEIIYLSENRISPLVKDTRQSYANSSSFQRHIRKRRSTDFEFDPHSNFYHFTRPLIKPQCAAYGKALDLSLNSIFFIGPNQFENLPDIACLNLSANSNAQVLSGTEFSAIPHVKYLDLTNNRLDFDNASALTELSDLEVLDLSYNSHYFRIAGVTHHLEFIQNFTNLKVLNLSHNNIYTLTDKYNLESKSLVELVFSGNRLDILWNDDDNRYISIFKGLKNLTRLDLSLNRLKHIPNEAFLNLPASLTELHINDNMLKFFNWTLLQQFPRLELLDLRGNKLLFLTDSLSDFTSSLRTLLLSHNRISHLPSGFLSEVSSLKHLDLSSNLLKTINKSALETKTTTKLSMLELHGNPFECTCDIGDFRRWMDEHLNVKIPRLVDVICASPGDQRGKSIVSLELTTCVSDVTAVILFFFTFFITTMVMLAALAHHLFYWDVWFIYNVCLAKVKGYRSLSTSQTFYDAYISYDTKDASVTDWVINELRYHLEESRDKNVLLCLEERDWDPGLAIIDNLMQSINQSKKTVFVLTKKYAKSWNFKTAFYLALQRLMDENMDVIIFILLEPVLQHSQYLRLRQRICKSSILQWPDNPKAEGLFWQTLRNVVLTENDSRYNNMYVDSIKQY
Outline: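 Compounds were added to HEK-Blue TLR8 reporter cells, pre-incubated 16-18 h, then treated 18 h at 37° C, 5% CO2. SEAP output was measured with Quanti-Blue (30 min) at OD 620 nm. Some values are averages of multiple measurements.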

human TLR7 (hTLR7) = target: T2, human TLR7 (hTLR7) (Homo sapiens, UniProt Q9NYK1); experiment: Human TLR7 agonist activity assay (HEK-Blue TLR7 SEAP reporter); assay type: cell-based; settings: HEK-Blue TLR7 cells, 18 h incubation, Quanti-Blue, OD 620 nm, some values average of multiple measurements
T2 construct: host or cells: HEK-Blue TLR7 cells (engineered human embryonic kidney cells)
T2 sequence (Q9NYK1 27-1049): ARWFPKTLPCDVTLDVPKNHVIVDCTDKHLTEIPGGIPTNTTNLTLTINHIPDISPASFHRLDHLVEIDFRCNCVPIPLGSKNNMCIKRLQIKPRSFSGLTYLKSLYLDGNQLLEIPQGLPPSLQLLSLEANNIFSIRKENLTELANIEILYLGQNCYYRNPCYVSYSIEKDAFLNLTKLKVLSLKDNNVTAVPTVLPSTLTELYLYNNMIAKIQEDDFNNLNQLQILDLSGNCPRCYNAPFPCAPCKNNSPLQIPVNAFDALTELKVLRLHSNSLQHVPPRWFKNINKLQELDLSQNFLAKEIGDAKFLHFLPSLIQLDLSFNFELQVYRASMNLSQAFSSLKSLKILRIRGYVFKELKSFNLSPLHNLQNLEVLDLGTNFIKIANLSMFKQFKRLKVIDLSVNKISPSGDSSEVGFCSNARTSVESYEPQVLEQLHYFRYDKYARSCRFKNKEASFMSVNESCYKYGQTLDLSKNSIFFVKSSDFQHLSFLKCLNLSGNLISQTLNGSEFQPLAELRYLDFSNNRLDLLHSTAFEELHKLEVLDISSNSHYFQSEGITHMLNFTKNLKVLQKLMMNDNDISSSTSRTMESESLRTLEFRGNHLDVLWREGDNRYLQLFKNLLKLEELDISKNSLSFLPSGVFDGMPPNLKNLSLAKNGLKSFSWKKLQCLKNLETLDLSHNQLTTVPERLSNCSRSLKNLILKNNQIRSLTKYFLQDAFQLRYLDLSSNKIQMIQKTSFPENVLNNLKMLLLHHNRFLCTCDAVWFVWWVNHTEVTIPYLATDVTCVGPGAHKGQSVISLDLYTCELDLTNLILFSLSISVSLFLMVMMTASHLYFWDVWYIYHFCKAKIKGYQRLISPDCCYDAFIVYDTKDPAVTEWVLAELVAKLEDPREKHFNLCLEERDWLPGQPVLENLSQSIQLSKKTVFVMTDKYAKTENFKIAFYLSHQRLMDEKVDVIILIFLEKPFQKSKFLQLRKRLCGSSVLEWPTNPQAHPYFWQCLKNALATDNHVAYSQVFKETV
Protocol: This procedure describes a method for assaying human TLR7 (hTLR7) and human TLR8 (hTLR8) agonist activity of the compounds disclosed herein.
HEK-Blue™ TLR7 cells were added to each well of a 384-well tissue-culture plate (15,000 cells per well) and incubated 16-18 h at 37° C., 5% CO2. Compounds (100 nL) were dispensed into wells containing the HEK-Blue™ TLR cells and the treated cells were incubated at 37° C., 5% CO2. After 18 h, ten microliters 5 of freshly prepared Quanti-Blue™ reagent (Invivogen) was added to each well and incubated for 30 min (37° C., […]). SLAP levels were measured using an Envision plate reader (OD=620 nm). The half maximal effective concentration values (ECSO; compound concentration which induced a response halfway between the assay baseline and maximum) were calculated. Some of the reported activities were the average of multiple measurements.

| SMILES | pEC50 (human TLR8 (hTLR8)) | pEC50 (human TLR7 (hTLR7)) |
| --- | --- | --- |
| CCCCN(CCO)c1nc(N)nc2cn(Cc3c(F)cc(C4=CCNC4)cc3OC)nc12 [Compound 147] | 5.69 | 5.74 |
| CCCCN(CCO)c1nc(N)nc2cn(Cc3ccc(CN4CC(OC)C4)cc3OC)nc12 [Compound 5] | 6.15 | 6.19 |
| CCCCN(CCO)c1nc(N)nc2cn(Cc3ccc(CN[C@@H]4CCCN(S(C)(=O)=O)C4)c4cccnc34)nc12 [Compound 200, (R)-2-((5-Amino-2-((5-(((1-(methylsulfonyl)piperidin-3-yl)amino)methyl)quinolin-8-yl)methyl)-2H-pyrazolo[4,3-d]pyrimidin-7-yl)(butyl)amino) ethan-1-ol] | 6.06 | 6.52 |
| CCCCN(CCO)c1nc(N)nc2cn(Cc3ccc(CNC4CCC4)c4cn[nH]c34)nc12 [Compound 207] | 5.93 | 5.62 |
| CCCCN(CCO)c1nc(N)nc2cn(Cc3ccc(CN4CC(CCO)C4)c4cccnc34)nc12 [Compound 62] | 6.17 | 5.88 |
| CCCCN(CCO)c1nc(N)nc2cn(Cc3ccc(CNC4CCC4)c4cccnc34)nc12 [Compound 46, 2-((5-Amino-2-((5-((cyclobutylamino)methyl)quinolin-8-yl)methyl)-2H-pyrazolo[4,3-d]pyrimidin-7-yl)(butyl)amino)ethan-1-ol] | 6.44 | 6.49 |
| CCCCN(CCO)c1nc(N)nc2cn(Cc3ccc(CNC4CCN(C)CC4)c4cccnc34)nc12 [Compound 65] | 5.62 | 5.68 |
| CCCCN(CCO)c1nc(N)nc2cn(Cc3ccc(CN[C@H]4CCOC4)cc3C(F)F)nc12 [Compound 99] | 5.80 | 5.72 |
| CCCCN(CCO)c1nc(N)nc2cn(Cc3ccc(CNCCCC4CC4)c4cccnc34)nc12 [Compound 63] | 6.13 | 6.04 |
| CCCCN(c1nc(N)nc2cn(Cc3c(F)cc(C4CCN(C5CC6(COC6)C5)CC4)cc3OC)nc12)C(C)CO (stereo not shown) [Compound 179] | 6.67 | 6.92 |
| CCCCN(CCO)c1nc(N)nc2cn(Cc3ccc(CNCC4CCC4)cc3C(F)F)nc12 [Compound 130] | 5.73 | 5.72 |
| CCCCNCc1ccc(Cn2cc3nc(N)nc(N(CCO)CCCC)c3n2)c(OC)c1 [Compound 12] | 6.32 | 6.18 |
| CCCCN(CCO)c1nc(N)nc2cn(Cc3cccc4c3OCCN4C(=O)CNC3CCC3)nc12 [Compound 134] | 5.73 | 5.65 |
| CCCCN(CCO)c1nc(N)nc2cn(Cc3ccc(CN4CC5(CC(O)C5)C4)cc3OC)nc12 [Compound 27] | 5.71 | 5.71 |
| CCCCN(CCO)c1nc(N)nc2cn(Cc3c(F)cc(CNCCOC)cc3OC)nc12 [Compound 73] | 6.23 | 6.49 |

Further compounds by rising pEC50 (human TLR8 (hTLR8)), results first:

| pEC50 (human TLR8 (hTLR8)) | pEC50 (human TLR7 (hTLR7)) | SMILES |
| --- | --- | --- |
| 5.53 | 6.03 | CCCCN(CCO)c1nc(N)nc2cn(Cc3c(F)cc(CNCCO)cc3F)nc12 [Compound 113] |
| 5.56 | 5.74 | CCCCN(CCO)c1nc(N)nc2cn(Cc3ccc(CNC4CCCOC4)cc3OC)nc12 (stereo not shown) [Compound 105] |
| 5.57 | 5.82 | CCCCN(CCO)c1nc(N)nc2cn(Cc3c(F)cc(CN[C@H]4C[C@H](O)C4)cc3OC)nc12 [Compound 94] |
| 5.70 | 6.27 | CCCCN(CCO)c1nc(N)nc2cn(Cc3c(F)cc(N4CCC(N[C@@H]5CCOC5)CC4)cc3F)nc12 [Compound 96] |
| 5.70 | 5.84 | CCCCN(CCO)c1nc(N)nc2cn(Cc3cc(OC)c(C4CCN(C5CC6(COC6)C5)CC4)cc3OC)nc12 [Compound 109] |
| 5.73 | 5.94 | CCCCN(CCO)c1nc(N)nc2cn(Cc3cc(OC)c(C4CCN(C5CCOCC5)CC4)cc3OC)nc12 [Compound 108] |
| 5.74 | 6.21 | CCCCN(CCO)c1nc(N)nc2cn(Cc3c(F)cc(C4CCN(C(C)C)CC4)cc3C#N)nc12 [Compound 151] |
| 5.74 | 6.13 | CCCCN(CCO)c1nc(N)nc2cn(Cc3c(F)cc(N4CCC(NC(C)C)CC4)cc3OC)nc12 [Compound 152] |
| 5.75 | 6.06 | CCCCN(CCO)c1nc(N)nc2cn(Cc3ncc(CNC4CCC4)cc3OC)nc12 [Compound 182] |
| 5.80 | 6.26 | CCCCN(CCO)c1nc(N)nc2cn(Cc3c(F)cc(C4=CCC(NC5CC6(COC6)C5)CC4)cc3OC)nc12 (stereo not shown) [Compound 192] |
| 5.83 | 6.16 | CCCCN(CCO)c1nc(N)nc2cn(Cc3ccc(CN4CCN(CCO)CC4)cc3OC)nc12 [Compound 19] |
| 5.85 | 6.00 | CCCCN(CCO)c1nc(N)nc2cn(Cc3c(F)cc(CNCC(C)(C)O)cc3OC)nc12 [Compound 81] |
| 5.95 | 6.13 | CCCCN(CCO)c1nc(N)nc2cn(Cc3ccc(CN4CCN(C)CC4)cc3OC)nc12 [Compound 13] |
| 5.96 | 5.67 | CCCCN(CCO)c1nc(N)nc2cn(Cc3ccc(CNC4(CO)CCOCC4)cc3OC)nc12 [Compound 154] |
| 6.05 | 6.17 | CCCCN(CCO)c1nc(N)nc2cn(Cc3ccc(CN4CC5(CC(OC)C5)C4)cc3OC)nc12 [Compound 6] |
| 6.17 | 6.41 | CCCCN(c1nc(N)nc2cn(Cc3ccc(CN4CCCCC4)cc3OC)nc12)C(C)CO (single isomer, unassigned) [Compound 49-2, 2-((5-amino-2-(2-methoxy-4-(piperidin-1-ylmethyl)benzyl)-2H-pyrazolo[4,3-d]pyrimidin-7-yl)(butyl)amino)propan-1-ol] |
| 6.27 | 5.91 | CCCCN(CCO)c1nc(N)nc2cn(Cc3ccc(CN[C@H]4CCOC[C@H]4C)cc3OC)nc12 [Compound 139] |
| 6.28 | 6.16 | CCCCN(CCO)c1nc(N)nc2cn(Cc3ccc(CNC4C[C@@H](C)O[C@@H](C)C4)cc3OC)nc12 (stereo partly shown) [Compound 166] |
| 6.30 | 6.70 | CCCCN(CCO)c1nc(N)nc2cn(Cc3c(F)cc(CN4CC(OC)C4)cc3OC)nc12 [Compound 84] |
| 6.64 | 6.74 | CCCCN(CCO)c1nc(N)nc2cn(Cc3ccc(CN4CC(CCOC)C4)c4cccnc34)nc12 [Compound 48] |
